Patent publication US12377101B2, “Combination therapies” (Mirati Therapeutics, Inc., priority 2018, dated 2025)
Marks after values point to notes of the source that are not given here.

How the values were obtained:
Assay type in all cases: in vivo, nude/nude mice
H2122 cells = assay: H2122 tumor bearing mice, single agents and combination; details: for tumor growth inhibition: Day 29, Compound 478 100 mg/kg or RMC-4550 30 mg/kg p.o. daily; for Average Tumor Volume: Compound 478 100 mg/kg, RMC-4550 30 mg/kg
Description: (§1) Immunocompromised nude/nude mice are inoculated in the right hind flank with cells or patient derived tumor samples harboring a KRas G12C mutation. When tumor volumes reach between 200-400 mm^3 in size, the mice are divided into four groups of 5-12 mice each. The first group is administered vehicle only. […] The fourth group is administered the single agent dose of the KRas G12C inhibitor in combination with the single agent dose of the SHP-2 inhibitor. […] Tumor volumes are measured using a caliper every two-three days and tumor volumes are calculated by the formula: 0.5×[…].
Similarly, 25 nude/nude mice were inoculated in the right hind limb with 5×10^6 H2122 cells.

SW1573 cells = assay: SW1573 tumor bearing mice, single agents and combination; details: for tumor growth inhibition: Day 22, Compound 478 100 mg/kg or RMC-4550 30 mg/kg p.o. daily; for Average Tumor Volume: Compound 478 100 mg/kg, RMC-4550 30 mg/kg
Description: as §1
(§2) 20 nude/nude mice per study were inoculated in the right hind limb with 5×10^6 SW1573 cells, KYSE410 cells or H358 cells.

KYSE410 cells = assay: KYSE410 tumor bearing mice, single agents and combination; details: for tumor growth inhibition: Day 22, Compound 478 100 mg/kg or RMC-4550 30 mg/kg p.o. daily; for Average Tumor Volume: Compound 478 100 mg/kg, RMC-4550 30 mg/kg
Description: as §1, §2

H358 cells = assay: H358 tumor bearing mice, single agents and combination
Description: as §1, §2

[1] = Study Day 0, p.o. daily, 5 mice
[2] = Study Day 0, p.o. daily, Compound 478 100 mg/kg, RMC-4550 30 mg/kg, 5 mice
[3] = Study Day 4, p.o. daily, Compound 478 100 mg/kg, RMC-4550 30 mg/kg
[4] = Study Day 6, p.o. daily, Compound 478 100 mg/kg, RMC-4550 30 mg/kg
[5] = Study Day 8, p.o. daily, Compound 478 100 mg/kg, RMC-4550 30 mg/kg
[6] = Study Day 12, p.o. daily, Compound 478 100 mg/kg, RMC-4550 30 mg/kg
[7] = Study Day 15, p.o. daily, Compound 478 100 mg/kg, RMC-4550 30 mg/kg
[8] = Study Day 18, p.o. daily, Compound 478 100 mg/kg, RMC-4550 30 mg/kg
[9] = Study Day 20, p.o. daily, Compound 478 100 mg/kg, RMC-4550 30 mg/kg
[10] = Study Day 22, p.o. daily, Compound 478 100 mg/kg, RMC-4550 30 mg/kg, RMC-4550 single agent: dosing was stopped after Day 22

Cc1nc(N2CCC3(CC2)CO[C@@H](C)[C@H]3N)c(CO)nc1-c1cccc(Cl)c1Cl [RMC-4550]
tumor growth inhibition (H2122 cells): 47% | Average Tumor Volume (H2122 cells; [1]): 350 mm^3 | Average Tumor Volume (H2122 cells; Study Day 4, p.o. daily): 515 mm^3 | Average Tumor Volume (H2122 cells; Study Day 6, p.o. daily): 578 mm^3 | Average Tumor Volume (H2122 cells; Study Day 8, p.o. daily): 614 mm^3 | Average Tumor Volume (H2122 cells; Study Day 11, p.o. daily): 683 mm^3 | Average Tumor Volume (H2122 cells; Study Day 13, p.o. daily): 750 mm^3 | Average Tumor Volume (H2122 cells; Study Day 15, p.o. daily): 856 mm^3 | Average Tumor Volume (H2122 cells; Study Day 18, p.o. daily): 880 mm^3 | Average Tumor Volume (H2122 cells; Study Day 21, p.o. daily): 916 mm^3 | Average Tumor Volume (H2122 cells; Study Day 24, p.o. daily): 1026 mm^3 | Average Tumor Volume (H2122 cells; Study Day 27, p.o. daily): 1137 mm^3 | Average Tumor Volume (H2122 cells; Study Day 29, p.o. daily): 1166 mm^3 | tumor growth inhibition (SW1573 cells): 68% | Average Tumor Volume (SW1573 cells; [1]): 336 mm^3 | Average Tumor Volume (SW1573 cells; Study Day 2, p.o. daily): 280 mm^3 | Average Tumor Volume (SW1573 cells; Study Day 4, p.o. daily): 286 mm^3 | Average Tumor Volume (SW1573 cells; Study Day 7, p.o. daily): 336 mm^3 | Average Tumor Volume (SW1573 cells; Study Day 9, p.o. daily): 305 mm^3 | Average Tumor Volume (SW1573 cells; Study Day 11, p.o. daily): 326 mm^3 | Average Tumor Volume (SW1573 cells; Study Day 14, p.o. daily): 418 mm^3 | Average Tumor Volume (SW1573 cells; Study Day 16, p.o. daily): 421 mm^3 | Average Tumor Volume (SW1573 cells; Study Day 18, p.o. daily): 375 mm^3 | Average Tumor Volume (SW1573 cells; Study Day 21, p.o. daily): 392 mm^3 | Average Tumor Volume (SW1573 cells; Study Day 22, p.o. daily): 510 mm^3 | tumor growth inhibition (KYSE410 cells): 90% | Average Tumor Volume (KYSE410 cells; [1]): 314 mm^3 | Average Tumor Volume (KYSE410 cells; Study Day 2, p.o. daily): 311 mm^3 | Average Tumor Volume (KYSE410 cells; Study Day 4, p.o. daily): 316 mm^3 | Average Tumor Volume (KYSE410 cells; Study Day 7, p.o. daily): 299 mm^3 | Average Tumor Volume (KYSE410 cells; Study Day 9, p.o. daily): 316 mm^3 | Average Tumor Volume (KYSE410 cells; Study Day 11, p.o. daily): 309 mm^3 | Average Tumor Volume (KYSE410 cells; Study Day 14, p.o. daily): 309 mm^3 | Average Tumor Volume (KYSE410 cells; Study Day 18, p.o. daily): 303 mm^3 | Average Tumor Volume (KYSE410 cells; Study Day 21, p.o. daily): 372 mm^3 | Average Tumor Volume (KYSE410 cells; Study Day 22, p.o. daily): 377 mm^3 | tumor growth inhibition (H358 cells; Day 22, RMC-4550 30 mg/kg p.o. daily): 22% | Average Tumor Volume (H358 cells; [2]): 333 mm^3 | Average Tumor Volume (H358 cells; [3]): 336 mm^3 | Average Tumor Volume (H358 cells; [4]): 343 mm^3 | Average Tumor Volume (H358 cells; [5]): 372 mm^3 | Average Tumor Volume (H358 cells; [6]): 388 mm^3 | Average Tumor Volume (H358 cells; [7]): 399 mm^3 | Average Tumor Volume (H358 cells; [8]): 422 mm^3 | Average Tumor Volume (H358 cells; [9]): 454 mm^3 | Average Tumor Volume (H358 cells; [10]): 492‡ mm^3

C=C(F)C(=O)N1CCN(c2nc(OC[C@@H]3CCCN3C)nc3c2CCN(c2cccc4cccc(Cl)c24)C3)C[C@@H]1CC#N [Compound 478]
tumor growth inhibition (H2122 cells): 93% | Average Tumor Volume (H2122 cells; Study Day 11, p.o. daily): 382 mm^3 | Average Tumor Volume (H2122 cells; Study Day 21, p.o. daily): 430 mm^3 | tumor growth inhibition (SW1573 cells): 81% | Average Tumor Volume (SW1573 cells; [1]): 335 mm^3 | Average Tumor Volume (SW1573 cells; Study Day 2, p.o. daily): 281 mm^3 | Average Tumor Volume (SW1573 cells; Study Day 4, p.o. daily): 318 mm^3 | Average Tumor Volume (SW1573 cells; Study Day 9, p.o. daily): 336 mm^3 | Average Tumor Volume (SW1573 cells; Study Day 14, p.o. daily): 363 mm^3 | Average Tumor Volume (SW1573 cells; Study Day 21, p.o. daily): 419 mm^3 | Average Tumor Volume (SW1573 cells; Study Day 22, p.o. daily): 433 mm^3 | tumor growth inhibition (KYSE410 cells): 93% | Average Tumor Volume (KYSE410 cells; [1]): 312 mm^3 | Average Tumor Volume (KYSE410 cells; Study Day 2, p.o. daily): 320 mm^3 | Average Tumor Volume (KYSE410 cells; Study Day 4, p.o. daily): 302 mm^3 | Average Tumor Volume (KYSE410 cells; Study Day 7, p.o. daily): 281 mm^3 | Average Tumor Volume (KYSE410 cells; Study Day 9, p.o. daily): 265 mm^3 | Average Tumor Volume (KYSE410 cells; Study Day 11, p.o. daily): 277 mm^3 | Average Tumor Volume (KYSE410 cells; Study Day 14, p.o. daily): 340 mm^3 | Average Tumor Volume (KYSE410 cells; Study Day 18, p.o. daily): 349 mm^3 | Average Tumor Volume (KYSE410 cells; Study Day 21, p.o. daily): 384 mm^3 | Average Tumor Volume (KYSE410 cells; Study Day 22, p.o. daily): 359 mm^3 | tumor regression (H358 cells; Day 22, Compound 478 100 mg/kg, alone or with RMC-4550 30 mg/kg, p.o. daily): 68% | Average Tumor Volume (H358 cells; [2]): 335 mm^3 | Average Tumor Volume (H358 cells; [3]): 277 mm^3 | Average Tumor Volume (H358 cells; [4]): 244 mm^3 | Average Tumor Volume (H358 cells; [5]): 200 mm^3 | Average Tumor Volume (H358 cells; [6]): 156 mm^3 | Average Tumor Volume (H358 cells; [7]): 133 mm^3 | Average Tumor Volume (H358 cells; [8]): 120 mm^3 | Average Tumor Volume (H358 cells; [9]): 113 mm^3 | Average Tumor Volume (H358 cells; [10]): 109 mm^3 | Average Tumor Volume (H358 cells; Study Day 25, p.o. daily, Compound 478 100 mg/kg, RMC-4550 30 mg/kg): 90 mm^3 | Average Tumor Volume (H358 cells; Study Day 27, p.o. daily, Compound 478 100 mg/kg, RMC-4550 30 mg/kg): 92 mm^3 | Average Tumor Volume (H358 cells; Study Day 29, Compound 478 100 mg/kg, RMC-4550 30 mg/kg p.o.): 81 mm^3 | Average Tumor Volume (H358 cells; Study Day 32, Compound 478 100 mg/kg, RMC-4550 30 mg/kg p.o.): 82 mm^3 | Average Tumor Volume (H358 cells; Study Day 34, Compound 478 100 mg/kg, RMC-4550 30 mg/kg p.o.): 84 mm^3 | Average Tumor Volume (H358 cells; Study Day 36, Compound 478 100 mg/kg, RMC-4550 30 mg/kg p.o.): 81 mm^3 | Average Tumor Volume (H358 cells; Study Day 39, Compound 478 100 mg/kg, RMC-4550 30 mg/kg p.o.): 73 mm^3 | Average Tumor Volume (H358 cells; Study Day 41, Compound 478 100 mg/kg, RMC-4550 30 mg/kg p.o.): 58 mm^3
